Data as given in patent publication US5888971A, “Macrocyclic peptides useful in the treatment of thrombin related disorders” (Ortho Pharmaceutical Corporation, Inc., priority 1996, dated 1999).

Experiments:
[1] = target: T1, human alpha-thrombin (Homo sapiens, UniProt P00734); assay: Thrombin-catalyzed hydrolysis of chromogenic substrate, Michaelis-Menten Ki; type: biochemical; conditions: 1 nM thrombin, 5-100 μM Spectozyme TH, 37° C., pH 7.4, Michaelis-Menten kinetics; for Ki: read-out: Thr Ki
T1 construct: commercial human alpha-thrombin (American Diagnostica); purchased American Diagnostica
Protocol: (§1) The compounds of the invention were tested for their ability to inhibit thrombin mediated hydrolysis.
Changes in absorbance at 405 nm were monitored (Softmax, Molecular Devices), upon addition of enzyme, both with and without inhibitor present at 37° C. over 30 minutes. […] Michaelis-Menton kinetics were applied to the initial reaction slopes using the program K Cat (Bio Metallics Inc.).

[2] = target: T2, Bovine type 1 trypsin (Bos taurus, UniProt P00760); assay: Trypsin-catalyzed hydrolysis of chromogenic substrate, Ki; type: biochemical; conditions: 3.2 U/ml trypsin, 0.1-0.3 mM Spectrozyme TRY; read-out: Trp Ki
T2 construct: purchased Sigma
T2 sequence (P00760 24-246): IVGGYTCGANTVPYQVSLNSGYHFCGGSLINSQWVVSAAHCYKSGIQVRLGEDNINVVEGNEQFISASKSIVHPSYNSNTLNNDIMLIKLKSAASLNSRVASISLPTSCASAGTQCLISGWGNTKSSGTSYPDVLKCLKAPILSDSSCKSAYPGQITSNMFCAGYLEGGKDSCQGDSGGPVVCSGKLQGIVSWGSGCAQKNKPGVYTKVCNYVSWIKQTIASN
Protocol: as §1
Trypsin-catalyzed hydrolysis rates were measured using the same method as the thrombin procedure.

[3] = target: T1, human alpha-thrombin; assay: Slow, tight-binding kinetics with thrombin (Ki-slow); type: biochemical; conditions: 0.1 nM thrombin, 50 μM Spectozyme TH, 25° C., 4 h; read-out: Thr Ki -slow
Protocol: Ki-slow was determined by measuring enzyme-catalyzed hydrolysis rates. […] The compound numbers in the table correspond to the examples described hereinafter.

[4] = target: thrombin (Homo sapiens, UniProt P00734); conditions: background section; cited from earlier work

| Compound | Ki [1] | Ki [2] | Ki [3] | Ki [4] | selectivity for thrombin over trypsin [4] | Thr Ki [1] |
| --- | --- | --- | --- | --- | --- | --- |
| 3S,6S,12R-N-[3-(12-BENZYL-2,5,11,14,20-PENTAOXO-23-THIA-4,10,13,19,24-PENTAAZATRICYCLO[19.2.1.3]-6,10-TETRACOSA-1(2H), 21-DIEN-3-YL)PROPYL]GUANIDINE [Compound 23] | 1000 ± 400 nM | 66 ± 26 nM | – | – | – | – |
| 5R,14R,18S,20aS-N-[3-(5-BENZYL-14-METHYI-4,7,13,16,17,20-HEXAOXOEICOSAHYDRO-3a,6,12,15,19-PENTAAZACYCLOPENTA-CYCLONONADECEN-18-YL)PROPYL]GUANIDINE TRIFLUOROACETIC ACID [Compound 21] | 92 ± 46 nM | 22 ± 14 nM | 4.71 ± 1.51 nM | – | – | – |
| 5R,15R,19S,21 AS-N-[3-(15-BENZHYDRYL-5-BENZYL-4,7,14,17,18,21-HEXAOXODOCOSAHYDRO-3a,6,13,16,20-PENTMZACYCLOPENTACYCLOEICOSEN-19-YL)PPROPYL]GUANIDINE TRIFLUOROACETIC ACID [Compound 19] | 5.3 ± 2.6 nM | 2.5 ± 0.75 nM | – | – | – | – |
| 5R, 2S, 18S-N-[3-(5-NAPTHALEN-2-YLMETHYL-4, 17, 16, 17, 20-PENTAOXOEICOSAHYDRO-3a, 6, 15, 19-TETRAAZACYCLOPENTACYCLONONADECEN-18-YL)PROPYL] GUANIDINE TRIFLUOROACETATE HYDRATE [Compound 6] | 21 ± 5 nM | 6.8 ± 5 nM | – | – | – | – |
| 6R, 19S, 22S-N-[3-(6-BENZYL-5, 8, 17, 18, 21-PENTAOXODOCOSAHYDRO-4a, 7, 16, 20-TETRAAZABENCBZOCYCLONONADECEN-19-YL) PROPYL] GUANIDINE TRIFLUOROACETIC ACID HYDRATE [Compound 5] | 90 ± 8.6 nM | 85 ± 29 nM | – | – | – | – |
| N=C(N)NCCCC1NC(=O)CCCCCNC(=O)C(Cc2ccccc2)NC(=O)C1=O (centres unmarked) [Compound 18, N-[3-(3-BENZYL-2,5,6,9-TETRAOXO-1,4,8-TRIAZACYCLOTETRADEC-7-YL)PROPYL]GUANIDINE TRIFLUOROACETIC ACID] | 3800 ± 200 nM | 310 ± 10 nM | – | – | – | – |
| N=C(N)NCCC[C@@H]1NC(=O)[C@@H]2CCCN2C(=O)[C@@H](NC=O)CNC(=O)/C=C/[C@H](Cc2ccc(O)cc2)NC(=O)[C@@H](Cc2ccccc2)NC(=O)C1=O [CtA, Cyclotheonamide A, reference compound] | 170 ± 80 nM | 23000 nM | 4 ± 1.9 nM | 1 to 2 nM | does not favor thrombin | – |
| CN[C@H](Cc1ccccc1)C(=O)N1CCC[C@H]1C(=O)N[C@H](C=O)CCCN=C(N)N [N-Me-PPAC, N-Me PPACK aldehyde, reference compound] | 10 nM | – | – | – | – | – |
| [20aR-(20aR, 5R, 18S)]-N-[3-(5-PHENYLETHYL-17-HYDROXY-4, 7, 16, 20-TETRAOXOEICOSAHYDRO-3a, 6, 15, 19-TETRA-AZACYCLONONADECANE-18-YL) PROPYIL] GUANIDINE [Compound 22] | – | – | – | – | – | no activity at 50 μM |
